Laboratory results: the supplement of paper PMC10307832

Assays:
Test in all cases: relative viability (nuclei count vs DMSO), 5 days (fraction); higher = more cells survive
XMD14-99 + Lapatinib = compound: CN1CCN(CC1)C2=CC(=C(C=C2)NC3=NC(=C(S3)C(=O)C4=C(C=CC=C4Cl)Cl)N)OC [XMD14-99] + CS(=O)(=O)CCNCc1ccc(-c2ccc3ncnc(Nc4ccc(OCc5cccc(F)c5)c(Cl)c4)c3c2)o1 [Lapatinib] (partner 2 µM)
Outline: (§1)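 Lung cancer cell lines in 1536-well plates got either a single drug or a fixed anchor-drug dose together with five library-drug doses (not always all listed) in √10 steps, by pin tool, on the day after seeding. Nuclei were counted after 5 days, and relative viability is the treated-to-vehicle ratio of nuclei counts. Values are medians of duplicate plates.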

AZD1208 + Crizotinib = compound: N[C@@H]1CCCN(c2c(/C=C3\SC(=O)NC3=O)cccc2-c2ccccc2)C1 [AZD1208] + C[C@@H](Oc1cc(-c2cnn(C3CCNCC3)c2)cnc1N)c1c(Cl)ccc(F)c1Cl [Crizotinib] (partner 1 µM)
Outline: as §1

AZD1208 + Decitabine = compound: N[C@@H]1CCCN(c2c(/C=C3\SC(=O)NC3=O)cccc2-c2ccccc2)C1 [AZD1208] + Nc1ncn([C@H]2C[C@H](O)[C@@H](CO)O2)c(=O)n1 [Decitabine] (partner 2 µM)
Outline: as §1

AZD1208 + Olaparib = compound: N[C@@H]1CCCN(c2c(/C=C3\SC(=O)NC3=O)cccc2-c2ccccc2)C1 [AZD1208] + O=C(c1cc(Cc2n[nH]c(=O)c3ccccc23)ccc1F)N1CCN(C(=O)C2CC2)CC1 [Olaparib] (partner 8 µM)
Outline: as §1

Row | Cell Line | relative viability (XMD14-99 + Lapatinib; first compound 0.08 µM) | relative viability (XMD14-99 + Lapatinib; first compound 0.8 µM) | relative viability (XMD14-99 + Lapatinib; first compound 2.53 µM) | relative viability (XMD14-99 + Lapatinib; first compound 8 µM) | relative viability (AZD1208 + Crizotinib; first compound 0.08 µM) | relative viability (AZD1208 + Crizotinib; first compound 0.253 µM) | relative viability (AZD1208 + Crizotinib; first compound 0.8 µM) | relative viability (AZD1208 + Crizotinib; first compound 2.53 µM) | relative viability (AZD1208 + Crizotinib; first compound 8 µM) | relative viability (AZD1208 + Decitabine; first compound 0.08 µM) | relative viability (AZD1208 + Decitabine; first compound 0.253 µM) | relative viability (AZD1208 + Decitabine; first compound 0.8 µM) | relative viability (AZD1208 + Decitabine; first compound 2.53 µM) | relative viability (AZD1208 + Decitabine; first compound 8 µM) | relative viability (AZD1208 + Olaparib; first compound 0.08 µM) | relative viability (AZD1208 + Olaparib; first compound 0.253 µM) | relative viability (AZD1208 + Olaparib; first compound 0.8 µM) | relative viability (AZD1208 + Olaparib; first compound 2.53 µM) | relative viability (AZD1208 + Olaparib; first compound 8 µM)
1 | HCC-78 | 0.911 | 0.751 | 0.858 | 0.648 | 0.338 | 0.366 | 0.333 | 0.356 | 0.323 | 0.685 | 0.629 | 0.646 | 0.704 | 0.697 | 0.859 | 0.904 | 0.762 | 0.815 | 0.754
2 | HCC-366 | 1.06 | 1.06 | 1.13 | 0.854 | 0.479 | 0.593 | 0.536 | 0.452 | 0.246 | 0.315 | 0.354 | 0.312 | 0.386 | 0.333 | 0.352 | 0.311 | 0.283 | 0.316 | 0.281
3 | HCC-827 | 0.182 | 0.205 | 0.188 | 0.197 | 0.93 | 0.992 | 0.931 | 0.915 | 0.936 | 0.435 | 0.327 | 0.281 | 0.341 | 0.335 | 0.623 | 0.669 | 0.389 | 0.641 | 0.338
4 | HOP-62 | 1.22 | 1.06 | 0.946 | 0.819 | 0.991 | 0.869 | 0.895 | 0.883 | 0.969 | 0.231 | 0.212 | 0.22 | 0.254 | 0.24 | 0.39 | 0.417 | 0.326 | 0.341 | 0.37
5 | IA-LM | 0.821 | 0.603 | 0.511 | 0.301 | 0.827 | 0.724 | 0.797 | 0.669 | 0.748 | – | – | – | – | – | 0.907 | 0.777 | 0.774 | 0.807 | 0.904
6 | LC-2-ad | 0.955 | 0.926 | 0.908 | 0.764 | 0.488 | 0.401 | 0.421 | 0.383 | 0.392 | 0.79 | 0.8 | 0.781 | 0.879 | 0.79 | 0.315 | 0.781 | 0.736 | 0.663 | 0.728
7 | LCLC-97TM1 | 1.06 | 0.815 | 0.786 | 0.583 | 0.464 | 0.515 | – | 0.318 | 0.294 | 0.175 | 0.209 | 0.238 | 0.233 | 0.178 | 0.327 | 0.396 | 0.385 | 0.316 | 0.252
8 | LCLC-103H | – | – | – | – | 1.03 | 1.11 | 1.05 | 1.31 | 1.03 | 0.715 | 0.654 | 0.707 | 0.723 | 0.743 | 0.774 | 0.798 | 0.811 | 0.81 | 0.786
9 | LK-2 | 0.801 | 1.01 | 0.823 | 0.949 | 0.28 | 0.211 | 0.212 | 0.275 | 0.252 | 0.316 | 0.291 | 0.23 | 0.274 | 0.195 | 0.677 | 0.736 | 0.444 | 0.324 | 0.353
10 | LOU-NH91 | 0.706 | 0.841 | 0.76 | 0.64 | 0.728 | 0.728 | 0.727 | 0.693 | 0.721 | 0.766 | 0.798 | 0.793 | 0.798 | 0.798 | 0.905 | 0.943 | 0.876 | 0.907 | 0.883
11 | NCI-H441 | – | – | – | – | 0.73 | 0.674 | 0.667 | 0.526 | 0.42 | 0.205 | 0.298 | 0.291 | 0.224 | 0.264 | 0.578 | 0.529 | 0.545 | 0.502 | 0.366
12 | NCI-H522 | – | – | – | – | – | – | – | – | – | 0.678 | 0.634 | 0.73 | 0.643 | 0.636 | 0.527 | 0.504 | 0.633 | 0.703 | 0.568
13 | NCI-H1299 | 0.924 | 0.925 | 0.925 | 0.813 | 0.958 | 1 | 0.933 | 0.969 | 0.963 | – | – | – | – | – | 0.999 | 1.01 | 0.974 | 0.957 | 0.987
14 | NCI-H1395 | 0.985 | 0.958 | 1.04 | 0.809 | – | – | – | – | – | 0.724 | 0.785 | 0.714 | 0.719 | 0.685 | 0.479 | 0.432 | 0.406 | 0.421 | 0.381
15 | NCI-H1563 | 0.85 | 1.1 | 0.906 | 0.824 | 0.877 | 0.81 | 0.928 | 0.924 | 0.8 | – | – | – | – | – | – | – | – | – | –
16 | NCI-H1648 | – | – | – | – | – | – | – | – | – | 0.631 | 0.476 | 0.464 | 0.547 | 0.567 | 1.09 | 1.44 | 0.663 | 0.828 | 0.939
17 | NCI-H1703 | 0.9 | 0.976 | 0.972 | 0.793 | 0.365 | 0.53 | 0.579 | 0.594 | 0.461 | – | – | – | – | – | 0.416 | 0.334 | 0.268 | 0.384 | 0.337
18 | NCI-H1793 | 0.646 | 0.729 | 0.647 | 0.633 | – | – | – | – | – | 0.447 | 0.448 | 0.509 | 0.463 | 0.363 | 0.878 | 0.649 | 0.767 | 0.744 | 0.675
19 | NCI-H2228 | 0.952 | 0.9 | 0.811 | 0.291 | 0.327 | 0.501 | 0.399 | – | 0.427 | – | – | – | – | – | 0.557 | 0.754 | 0.584 | 0.527 | 0.673
20 | NCI-H2342 | – | – | – | – | – | – | – | – | – | 0.772 | 0.736 | 0.595 | 0.674 | 0.581 | 0.49 | 0.383 | 0.372 | 0.456 | 0.376
21 | SW 900 | – | – | – | – | – | – | – | – | – | 0.456 | 0.407 | 0.382 | 0.395 | 0.444 | 0.692 | 0.538 | 0.893 | 0.923 | 0.668
